Test results published in the supplement of paper PMC4862054.

What was measured:
Conditions in all cases: incubation time: 72 h
Hs578T = assay: normalised viability (% of control), CellTiter-Blue; higher = more viable cells (about 100 = DMSO control)
In short: (§1)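 Vehicle (100) and a positive kill control (0) anchored the normalisation of each plate, and Z'-factor was used for quality control. Breast cancer cell lines in 20 µl suspension were incubated 72 h over compound in 5 µl medium in 384-well plates, followed by CellTiter-Blue at 560/590 nm. The value is normalised viability at a single listed concentration of the series.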

HCC1937 [1] = assay: as above
In short: as §1

MDA-MB-231 [2] = assay: as above
In short: as §1

DU-4475 = assay: as above
In short: as §1

HCC1599 = assay: as above
In short: as §1

HDQ-P1 [3] = assay: as above
In short: as §1

MDA-MB-453 = assay: as above
In short: as §1

CAL-85-1 = assay: as above
In short: as §1

CAL-120 = assay: as above
In short: as §1

BT-549 = assay: as above
In short: as §1

MFM-223 = assay: as above
In short: as §1

CAL-148 = assay: as above
In short: as §1

MDA-MB-436 = assay: as above
In short: as §1

HCC1143 [4] = assay: as above
In short: as §1

SK-BR-3 = assay: as above
In short: as §1

MDA-MB-468 = assay: as above
In short: as §1

BT-474 [5] = assay: as above
In short: as §1

CAL-51 = assay: as above
In short: as §1

HCC1937 [6] = assay: drug sensitivity score (DSS), CellTiter-Glo (DSS (AUC-based score)); higher = stronger drug effect (viability inhibition or cytotoxicity); extreme values may be limits of the assay
In short: (§2)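 Breast cancer cell lines (20 µl suspension) were seeded into 384-well plates holding compound at 5 concentrations in 10-fold steps over a compound-specific 10,000-fold range, then incubated 72 h. CellTox Green fluorescence (485/520 nm) was read first, then CellTiter-Glo luminescence after 10 min at room temperature. Each plate was normalised to 0.1 % DMSO and a positive kill control. The drug sensitivity score was calculated from the area under the fitted dose-response curve.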

MDA-MB-231 [7] = assay: as above
In short: as §2

HDQ-P1 [8] = assay: as above
In short: as §2

HCC1143 [9] = assay: as above
In short: as §2

BT-474 [10] = assay: as above
In short: as §2

MCF-10A = assay: as above
In short: as §2

N[C@@H](Cc1ccc(N(CCCl)CCCl)cc1)C(=O)O [Melphalan]
normalised viability [%]
Conditions	0.297 nM	0.99 nM	2.97 nM	9.9 nM	99 nM	990 nM
BT-474 [5]	–	99.9	–	–	98	99.1
BT-549	–	92.7	–	–	115	89.3
CAL-51	105	–	102	107	–	–
CAL-85-1	94.8	–	91.2	96.6	–	–
CAL-120	–	74.3	–	–	71.6	64.3
CAL-148	92.6	–	94.5	91.4	–	–
DU-4475	101	–	84.1	92.8	–	–
HCC1143 [4]	–	67.8	–	–	70.3	67.8
HCC1599	–	102	–	–	82.1	90.7
HCC1937 [1]	–	89	–	–	64.2	39.5
HDQ-P1 [3]	117	–	94	91.2	–	–
Hs578T	–	98.4	–	–	82	73
MDA-MB-231 [2]	–	91.1	–	–	97.7	91.5
MDA-MB-436	–	88.2	–	–	90	75.4
MDA-MB-453	105	–	101	102	–	–
MDA-MB-468	–	95.7	–	–	99.7	63
MFM-223	–	90	–	–	84.7	99.3
SK-BR-3	–	94.6	–	–	98.8	50.6

Conditions	drug sensitivity score
BT-474 [10]	19.2
HCC1143 [9]	13.9
HCC1937 [6]	20.2
HDQ-P1 [8]	19.5
MCF-10A	17.6
MDA-MB-231 [7]	20.7

O=C(c1cc(Cc2n[nH]c(=O)c3ccccc23)ccc1F)N1CCN(C(=O)C2CC2)CC1 [Olaparib]
normalised viability [%]
Conditions	3 nM	10 nM	30 nM	100 nM	1000 nM	10000 nM
BT-474 [5]	–	109	–	–	104	98.2
BT-549	–	95	–	–	90.8	84.9
CAL-51	107	–	98.5	97.7	–	–
CAL-85-1	87.7	–	74	90.5	–	–
CAL-120	–	78.7	–	–	80.5	68.6
CAL-148	76.5	–	87.8	83.3	–	–
DU-4475	95.6	–	89.2	91.6	–	–
HCC1143 [4]	–	81.6	–	–	92.9	80.2
HCC1599	–	93.8	–	–	114	94.2
HCC1937 [1]	–	78.5	–	–	58.4	51.2
HDQ-P1 [3]	95.6	–	102	103	–	–
Hs578T	–	110	–	–	109	75.7
MDA-MB-231 [2]	–	89.7	–	–	88	72.2
MDA-MB-436	–	113	–	–	105	95.6
MDA-MB-453	109	–	92.3	100	–	–
MDA-MB-468	–	102	–	–	89.8	65.8
MFM-223	–	98.3	–	–	98.8	114
SK-BR-3	–	103	–	–	93.5	82.1

Conditions	drug sensitivity score
BT-474 [10]	0
HCC1143 [9]	0
HCC1937 [6]	0
HDQ-P1 [8]	0
MCF-10A	0
MDA-MB-231 [7]	0
